Laboratory results published in patent EP4741395A1, “NOVEL COMPOUND SENSITIVE TO NITROGEN MONOXIDE AND PHARMACEUTICAL COMPOSITION COMPRISING SAME” (Omniamed Co. Ltd, priority 2023, dated 2025).

Key:
[1] = test system: Raw 264.7 cell line; assay: NO scavenging activity in LPS-treated immune cells (Griess reagent); type: cell-based; settings: 24 hours; for activity at 10 µM: Mus musculus, RAW264.7, Raw 264.7, LPS 500 ng/mL, read-out: NO Scavenging Activity (%) (Mean±SD)
Procedure: Raw 264.7 cell line was seeded in a 48-well plate at a density of 8×10^4 cells/well, and cultured at 37°C in a DMEM medium including 10% FBS, 100 U/mL of penicillin and 100 µg/mL of streptomycin.
The medium was cultured overnight, and then replaced with a fresh medium including 10 µM of the pharmaceutical composition sensitive to nitrogen monoxide including the compound of each of Examples 1 to 30 and 500 ng/mL of LPS, and the fresh medium was cultured again for another 24 hours.
Lastly, in order to measure the amount of NO produced, the amount of NO2^- present in the cell culture medium was measured using a Griess reagent (sulfanilamide, N-1-naphthylethylenediamine dihydrochloride). Specifically, 100 µL of a Griess reagent was mixed with a mixture solution of 50 µL of the cell culture medium and 50 µL of PBS. The mixture solution was reacted for 10 minutes in a well plate, and absorbance thereof at 540 nm was measured.

[2] = DAF-2 assay of NO scavenging activity (NO donor SNAP); type: biochemical; settings: DAF-2 10 µM, SNAP 100 µM, PBS, 3 hours, 37°C
Procedure: NO scavenging activity of the pharmaceutical composition sensitive to nitrogen monoxide including the compound according to each of Examples 1 to 22, 29 to 31, and 33 to 35 was evaluated through a DAF-2 assay.
Specifically, a reagent stock solution was made using DMSO (dimethyl sulfoxide) in order to prepare 5 mM of DAF-2, 100 mM of SNAP and 5 mM of the compound synthesized in each of the Examples, and for the reaction, the solution was added to a PBS (phosphate buffered saline) solution so that DAF-2, SNAP and the compound had final concentrations of 10 µM, 100 µM and the concentration of Table 1, respectively, followed by a reaction for 3 hours in a 37°C incubator.

[3] = DAF-2 assay of NO scavenging activity without and with H2O2 (ROS); type: biochemical; settings: SNAP 100 µM, DAF-2 10 µM, 3 hours, 37°C; for NO Scavenging Activity (%) (Mean±SD) With H2O2: H2O2 1 mM
Procedure: The pharmaceutical composition sensitive to nitrogen monoxide including the compound according to each of Examples 23 to 28 and 32 may have scavenging activity for reactive oxygen species (ROS). NO scavenging activity of the pharmaceutical composition was evaluated through a DAF-2 assay.
Specifically, to a 100 µM solution of SNAP, the compound synthesized in each of the Examples was added at a concentration of the following Table 2, and reacted. Then 10 µM of DAF-2 was added thereto, followed by a reaction for 3 hours in a 37°C incubator.
Additionally, a stock solution of H2O2 (10 M) was added to the reaction solution so that SNAP and H2O2 had final concentrations of 100 µM and 1 mM, respectively. Then, the compound synthesized in each of the Examples was added thereto at a concentration of the following Table 11, followed by a reaction in the same manner, and NO scavenging activity was calculated by Equation 1.

## COc1ccc(NC(=O)n2ccc3c(N(C)[C@H]4CN(C(=O)CC#N)CC[C@H]4C)ncnc32)c(N)c1 [Example 6, N-(2-amino-4-methoxyphenyl)-4-(((3R,4R)-1-(2-cyanoacetyl)-4-methylpiperidin-3-yl)(methyl)amino)-7H-pyrrolo[2,3-d]pyrimidine-7-carboxamide]
[1]
  activity at 10 µM: 68.5 ± 0.11%

## COc1ccc(N)c(NC(=O)n2ccc3c(N(C)[C@H]4CN(C(=O)CC#N)CC[C@H]4C)ncnc32)c1 [Example 7, N-(2-amino-5-methoxyphenyl)-4-(((3R,4R)-1-(2-cyanoacetyl)-4-methylpiperidin-3-yl)(methyl)amino)-7H-pyrrolo[2,3-d]pyrimidine-7-carboxamide]
[1]
  activity at 10 µM: 88.2 ± 0.06%

## C[C@@H]1CCN(C(=O)CC#N)C[C@@H]1N(C)c1ncnc2c1ccn2C(=O)Nc1ccc(O)cc1N [Example 8, N-(2-amino-4-hydroxyphenyl)-4-(((3R,4R)-1-(2-cyanoacetyl)-4-methylpiperidin-3-yl)(methyl)amino)-7H-pyrrolo[2,3-d]pyrimidine-7-carboxamide]
[1]
  activity at 10 µM: 72.6 ± 0.31%

## C[C@@H]1CCN(C(=O)CC#N)C[C@@H]1N(C)c1ncnc2c1ccn2C(=O)Nc1cc(O)ccc1N [Example 9, N-(2-amino-5-hydroxyphenyl)-4-(((3R,4R)-1-(2-cyanoacetyl)-4-methylpiperidin-3-yl)(methyl)amino)-7H-pyrrolo[2,3-d]pyrimidine-7-carboxamide]
[1]
  activity at 10 µM: 78.9 ± 0.21%

## C[C@@H]1CCN(C(=O)CC#N)C[C@@H]1N(C)c1ncnc2c1ccn2C(=O)N(C)CCN(C)C(=O)Nc1ccccc1N [Example 14, N-(2-(3-(2-aminophenyl)-1-methylureido)ethyl)-4-(((3R,4R)-1-(2-cyanoacetyl)-4-methylpiperidin-3-yl)(methyl)amino)-N-methyl-7H-pyrrolo[2,3-d]pyrimidine-7-carboxamide]
[1]
  activity at 10 µM: 46 ± 2.52%

## COc1ccc(NC(=O)N(C)CCN(C)C(=O)n2ccc3c(N(C)[C@H]4CN(C(=O)CC#N)CC[C@H]4C)ncnc32)c(N)c1 [Example 17, N-(2-(3-(2-amino-4-methoxyphenyl)-1-methylureido)ethyl)-4-(((3R,4R)-1-(2-cyanoacetyl)-4-methylpiperidin-3-yl) (methyl)amino)-N-methyl-7H-pyrrolo[2,3-d]pyrimidine-7-carboxamide]
[1]
  activity at 10 µM: 29.6 ± 2.95%

## C[C@@H]1CCN(C(=O)CC#N)C[C@@H]1N(C)c1ncnc2c1ccn2C(=O)N(C)CCN(C)C(=O)Nc1ccc(O)cc1N [Example 19, N-(2-(3-(2-amino-4-hydroxyphenyl)-1-methylureido)ethyl)-4-(((3R,4R)-1-(2-cyanoacetyl)-4-methylpiperidin-3-yl) (methyl)amino)-N-methyl-7H-pyrrolo[2,3-d]pyrimidine-7-carboxamide]
[1]
  activity at 10 µM: 54.1 ± 2.51%

## CC[C@@H]1CN(C(=O)NCC(F)(F)F)C[C@@H]1c1cnc2cnc3c(ccn3C(=O)Nc3cc4c(cc3N)n(C)c(=O)n4C)n12 [Example 31, N-(6-amino-1,3-dimethyl-2-oxo-2,3-dihydro-1H-benzo[d]imidazol-5-yl)-8-((3R,4S)-4-ethyl-1-((2,2,2-trifluoroethyl)carbamoyl)pyrrolidin-3-yl)-3H-imidazo[1,2-a]pyrrolo[2,3-e]pyrazine-3-carboxamide]
[2]; compound 1 µM
  NO Scavenging Activity (%) (Mean±SD): 79.61 ±3.60%
[2]; compound 5 µM
  NO Scavenging Activity (%) (Mean±SD): 90.34 ±0.98%
[2]; compound 10 µM
  NO Scavenging Activity (%) (Mean±SD): 92.21 ±0.98%

## CC[C@@H]1CN(C(=O)NCC(F)(F)F)C[C@@H]1c1cnc2cnc3c(ccn3C(=O)Nc3cc4c(cc3NC(=O)OCc3ccc(B(O)O)cc3)n(C)c(=O)n4C)n12 [Example 32, (4-((((6-(8-((3R,4S)-4-ethyl-1-((2,2,2-trifluoroethyl)carbamoyl)pyrrolidin-3-yl)-3H-imidazo[1,2-a]pyrrolo[2,3-e]pyrazine-3-carboxamido)-1,3-dimethyl-2-oxo-2,3-dihydro-1H-benzo[d]imidazol-5-yl)carbamoyl)oxy)methyl)phenyl)boronic acid]
[3]; compound 1 µM
  NO Scavenging Activity (%) (Mean±SD) Without H2O2: 6.42± 10.86%
  NO Scavenging Activity (%) (Mean±SD) With H2O2: 4.05± 3.57%
[3]; compound 5 µM
  NO Scavenging Activity (%) (Mean±SD) Without H2O2: 6.84± 5.21%
  NO Scavenging Activity (%) (Mean±SD) With H2O2: 29.92 ±7.09%
[3]; compound 10 µM
  NO Scavenging Activity (%) (Mean±SD) Without H2O2: 9.26± 5.51%
  NO Scavenging Activity (%) (Mean±SD) With H2O2: 32.06 ±3.99%

## CC1CC2C3CCC4=CC(=O)C=CC4(C)C3(F)C(O)CC2(C)C1(O)C(=O)COC(=O)Nc1ccccc1N (centres unmarked) [Example 33, 2-(9-fluoro-11,17-dihydroxy-10,13,16-trimethyl-3-oxo-6,7,8,9,10,11,12,13,14,15,16,17-dodecahydro-3H-cyclopenta[a]phenanthren-17-yl)-2-oxoethyl (2-aminophenyl) carbamate]
[2]; compound 1 µM
  NO Scavenging Activity (%) (Mean±SD): 2.22± 4.76%
[2]; compound 5 µM
  NO Scavenging Activity (%) (Mean±SD): 1.72± 4.28%
[2]; compound 10 µM
  NO Scavenging Activity (%) (Mean±SD): 1.52± 10.22%

## Cc1ccc(NC(=O)OCC(=O)C2(O)C(C)CC3C4CCC5=CC(=O)C=CC5(C)C4(F)C(O)CC32C)c(N)c1 (centres unmarked) [Example 34, 2-(9-fluoro-11,17-dihydroxy-10,13,16-trimethyl-3-oxo-6,7,8,9,10,11,12,13,14,15,16,17-dodecahydro-3H-cyclopenta[a]phenanthren-17-yl)-2-oxoethyl (2-amino-4-methylphenyl) carbamate]
[2]; compound 10 µM
  NO Scavenging Activity (%) (Mean±SD): 0.76± 5.81%

## N-(2-(3-(2-amino-5-hydroxyphenyl)-1-methylureido)ethyl)-4-(((1S,2R)-5-(2-cyanoacetyl)-2-methylcyclohexyl) (methyl)amino)-N-methyl-7H-pyrrolo[2,3-d]pyrimidine-7-carboxamide [Example 20]
[1]; 10 µM, Raw 264.7, LPS 500 ng/mL
  NO Scavenging Activity (%) (Mean±SD): 59.5±0.11%

## cyanocobalamin [Vitamin B12, reference compound]
[2]; compound 1 µM
  NO Scavenging Activity (%) (Mean±SD): 3.18± 1.03%
[2]; compound 5 µM
  NO Scavenging Activity (%) (Mean±SD): 8.98± 2.46%
[2]; compound 10 µM
  NO Scavenging Activity (%) (Mean±SD): 12.37 ±3.73%
[2]; compound 100 µM
  NO Scavenging Activity (%) (Mean±SD): 41.09 ±1.57%
[2]; compound 1,000 µM
  NO Scavenging Activity (%) (Mean±SD): 99.48 ±0.95%
